# Reference: patent publication US11008311B2, “Potassium salt of benzimidazole compound and preparation method therefor, composition and application thereof” (WUHAN LL SCIENCE AND TECHNOLOGY DEVELOPMENT CO., LTD., priority 2016, dated 2021)
# How the values were obtained:
# [1] = tested on: spontaneously hypertensive rats; test: Antihypertensive efficacy test in spontaneously hypertensive rats (systolic blood pressure and heart rate by implanted blood pressure sensor); assay type: in vivo, rat; conditions: SHR, intragastric, 1 mg/kg as azilsartan; for Change in heart rate / Changes in systolic blood pressure: mean ± standard error
# Protocol: 12-week-old spontaneously hypertensive rats (hereinafter referred to as SHR, purchased from Beijing Vital River Laboratory Animal Technology Co., Ltd.) were anesthetized with 2.5% sodium pentobarbital for intraperitoneal injection. The blood pressure sensing catheter of a blood pressure implant was inserted into the abdominal aorta, the implant was fixed to the abdominal wall, and the postoperative daily care was performed after suturing. Animals with systolic blood pressure exceeding 160 mmHg were selected into a total of 3 groups with 8 animals in each group. The control group was given 0.5% CMC-Na (sodium carboxymethylcellulose); in the OR01019 group and the QR01019K group, the compounds were dissolved in 0.5% CMC-Na, and the doses were all administered at an effective dose of 1 mg/kg of azilsartan with an administration volume of 4 mL/kg by intragastric administration. The systolic blood pressure and heart rate of the animals before the administration were used as reference values, and the changes of systolic blood pressure and heart rate of SHR at each time point before and after administration were compared, in which the systolic blood pressure and heart rate of SHR were measured three times at each time point and then averaged.
# [2] = Determination of equilibrium solubility; assay type: physicochemical; conditions: for solubility thermodynamic at 24 h: 37 °C, thermodynamic from solid, 37±2° C., based on azilsartan
# [3] = before administration (reference value)
# [4] = aqueous buffer, pH 4.5 (acetate buffer)
# [5] = aqueous buffer, pH 6.8 (phosphate buffer)
# [6] = aqueous buffer, pH 7.8 (phosphate buffer)
# [7] = simulated gastric fluid, pH 1.0 (hydrochloric acid solution)
"solubility thermodynamic at 24 h [2, 4] [µg/mL]","solubility thermodynamic at 24 h [2, 5] [µg/mL]","solubility thermodynamic at 24 h [2, 6] [µg/mL]","solubility thermodynamic at 24 h [2, 7] [µg/mL]",solubility thermodynamic at 24 h ([2]; Pure water) [µg/mL],SMILES,Change in heart rate ([1]; 1 hour after administration) [times/minute],Changes in systolic blood pressure ([1]; 1 hour after administration) [mmHg],Change in heart rate ([1]; 3 hours after administration) [times/minute],Changes in systolic blood pressure ([1]; 3 hours after administration) [mmHg],Change in heart rate ([1]; 5 hours after administration) [times/minute],Changes in systolic blood pressure ([1]; 5 hours after administration) [mmHg],Change in heart rate ([1]; 7 hours after administration) [times/minute],Changes in systolic blood pressure ([1]; 7 hours after administration) [mmHg],Change in heart rate ([1]; 10 hours after administration) [times/minute],Changes in systolic blood pressure ([1]; 10 hours after administration) [mmHg],Change in heart rate ([1]; 24 hours after administration) [times/minute],Changes in systolic blood pressure ([1]; 24 hours after administration) [mmHg],"Change in heart rate [1, 3] [times/minute]","Changes in systolic blood pressure [1, 3] [mmHg]",also measured
0.06,1.6,13.6,2.01,0.74,"CCOc1nc2cccc(C(=O)OC(C)OC(=O)OCc3nc(C)c(C)nc3C)c2n1Cc1ccc(-c2ccccc2-c2noc(=O)[nH]2)cc1 (centres unmarked) [QR01019, reference compound]",−3.4 ± 2.6,−4.9 ± 4.8,−2.33 ± 2.6,−22.0 ± 3.6,−6.5 ± 2.8,−30.5 ± 3.5,−6.2 ± 3.0,−38.8 ± 2.3,−12.3 ± 2.8,−33.0 ± 1.7,−6.7 ± 2.6,−10.2 ± 2.1,0.0 ± 0.0,0.0 ± 0.0,–
2.3,25.9,400,18.7,542,CCOc1nc2cccc(C(=O)OC(C)OC(=O)OCc3nc(C)c(C)nc3C)c2n1Cc1ccc(-c2ccccc2-c2noc(=O)[n-]2)cc1.[K+] (centres unmarked) [QR01019K],−3.6 ± 2.4,−7.0 ± 3.4,−5.0 ± 2.5,−34.3 ± 1.9,−10.1 ± 3.0,−46.5 ± 2.5,−17.5 ± 3.0,−49.4 ± 4.1,−25.4 ± 2.4,−45.3 ± 3.3,−28.6 ± 8,−25.9 ± 3.4,0.0 ± 0.0,0.0 ± 0.0,"antihypertensive effect compared with QR01019 (in words) [1]: more potent and longer-lasting antihypertensive effect than QR01019; effect of reducing heart rate compared with QR01019 (in words) [1]: more potent and longer-lasting effect of reducing heart rate than QR01019; concentrations in acidic and neutral media compared with QR01019 (in words) ([2]; equilibrium solubility, Table 5): much higher than QR01019"
